Data as given in patent US20170197935A1, “INHIBITORS OF DNA GYRASE FOR THE TREATMENT OF BACTERIAL INFECTIONS” (Vitas Pharma Research Private Limited, priority 2012, published 2017).
≈ marks a conversion by molar mass, not a printed value.

Tests used:
E. coli (ATCC 25922) = assay: MIC by microbroth dilution, E. coli ATCC 25922; assay type: cell-based; conditions: Escherichia coli, ATCC25922, Formula I compounds, read-out: MIC E. coli (ATCC 25922)
Experimental: (§1) Shown below are the microbiological activities of representative compounds of Formula I of the invention. The compounds were tested by the microbroth dilution method (National committee for Clinical Laboratory Standards, 2011, M07-08) and the Minimum Inhibitory Concentration (MIC) was determined.
(§2) Analysis of microbiological activity of compounds shown below are the microbiological activities of representative compounds of Formula II of the invention. The compounds were tested by the microbroth dilution method as per the reference in Example 1.

[1] = test system: Methicillin resistant Staphylococcus aureus (ATCC 33591); assay: MIC by microbroth dilution, MRSA ATCC 33591; assay type: cell-based; conditions: ATCC33591, Formula I compounds, read-out: MIC Methicillin resistant Staphylococcus aureus (ATCC 33591)
Experimental: as §1, §2

[2] = test system: K. pneumoniae (ATCC 700603); assay: MIC by microbroth dilution, K. pneumoniae ATCC 700603; assay type: cell-based; conditions: Klebsiella pneumoniae, ATCC700603, Formula I compounds
Experimental: as §1, §2

[3] = test system: Staphylococcus aureus (ATCC 29213); assay: MIC by microbroth dilution, Staphylococcus aureus ATCC 29213; assay type: cell-based; conditions: ATCC29213
Experimental: (§3) Shown below are the microbiological activities of representative compounds of Formula I of the invention. The compounds were tested by the microbroth dilution method (National committee for Clinical Laboratory Standards, 2011, […]-08) and the Minimum Inhibitory Concentration (MIC) was determined.

[4] = test system: Moraxella catarrhalis (ATCC 8176); assay: MIC by microbroth dilution, Moraxella catarrhalis ATCC 8176; assay type: cell-based; conditions: ATCC8176
Experimental: as §3

[5] = test system: Streptococcus pneumoniae (ATCC 6301); assay: MIC by microbroth dilution, Streptococcus pneumoniae ATCC 6301; assay type: cell-based; conditions: ATCC6301
Experimental: as §3

[6] = test system: Enterococcus faecalis (ATCC 29212); assay: MIC by microbroth dilution, Enterococcus faecalis ATCC 29212; assay type: cell-based; conditions: ATCC29212
Experimental: as §3

E. coli Gyrase = target: T1, E. coli Gyrase (Escherichia coli, UniProt P0AES4+P0AES6); assay: in vitro Gyrase supercoiling assay (Inspiralis kit); assay type: biochemical; conditions: 1 hour at 37° C., read-out: % inhibition of DNA supercoiling activity; for inhibition at 0.1 µM: 0.1 μM compound; for inhibition at 1 µM: 1 μM compound
T1 construct: purchased Inspiralis
T1 sequence (P0AES4 whole entry, one chain of several): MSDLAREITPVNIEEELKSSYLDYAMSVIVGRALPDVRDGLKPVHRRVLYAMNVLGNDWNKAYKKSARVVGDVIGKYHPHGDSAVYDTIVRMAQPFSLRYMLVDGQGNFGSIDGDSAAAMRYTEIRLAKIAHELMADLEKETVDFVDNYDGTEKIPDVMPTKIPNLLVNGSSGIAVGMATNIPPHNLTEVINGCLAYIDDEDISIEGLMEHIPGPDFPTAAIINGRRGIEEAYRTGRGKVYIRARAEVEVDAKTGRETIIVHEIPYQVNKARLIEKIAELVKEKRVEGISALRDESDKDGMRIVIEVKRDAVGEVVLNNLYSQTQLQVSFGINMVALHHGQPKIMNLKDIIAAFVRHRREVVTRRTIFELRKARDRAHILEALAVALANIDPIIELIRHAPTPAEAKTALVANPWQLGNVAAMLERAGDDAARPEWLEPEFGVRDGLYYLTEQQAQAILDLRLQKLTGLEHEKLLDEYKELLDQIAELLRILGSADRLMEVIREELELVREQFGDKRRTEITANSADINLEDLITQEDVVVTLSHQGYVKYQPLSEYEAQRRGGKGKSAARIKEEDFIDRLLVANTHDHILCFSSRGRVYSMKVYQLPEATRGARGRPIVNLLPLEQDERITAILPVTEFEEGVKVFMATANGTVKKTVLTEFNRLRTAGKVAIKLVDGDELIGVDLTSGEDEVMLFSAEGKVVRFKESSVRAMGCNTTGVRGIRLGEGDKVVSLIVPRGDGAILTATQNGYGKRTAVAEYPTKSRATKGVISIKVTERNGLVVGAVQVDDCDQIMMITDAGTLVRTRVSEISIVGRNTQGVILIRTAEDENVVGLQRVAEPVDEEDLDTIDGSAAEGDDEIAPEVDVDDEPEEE
Experimental: To test for target specificity, the activity of compounds was evaluated in an in vitro Gyrase assay using recombinant Gyrase protein as per the instructions of the assay kit (Inspiralis). The assay measures the ability of E. coli Gyrase to convert relaxed plasmid DNA into the supercoiled form. The enzyme is incubated with the substrate (relaxed DNA) in the presence and absence of compounds for 1 hour at 37° C. and the DNA is run on a gel at low voltage for several hours. The gel is then stained with Ethidium bromide and DNA in the different forms is quantified using DNA imaging and quantification software (Image Lab). The activity of the enzyme is proportional to the amount of supercoiled form detected.

Structure (SMILES) | MIC (E. coli (ATCC 25922)) [µg/mL] | MIC [1] [µg/mL] | MIC [2] [µg/mL] | MIC [3] [µg/mL] | MIC [4] [µg/mL] | MIC [5] [µg/mL] | MIC [6] [µg/mL] | inhibition at 0.1 µM (E. coli Gyrase) [%] | inhibition at 1 µM (E. coli Gyrase) [%]
COc1ccc2ncc(C#N)c(CCN3C4CCC3CC(NCc3cc5c(cn3)OCS5)C4)c2c1 (stereo not drawn) [VT-03-00014] | 32 (≈ 65.6 µM) | 4 (≈ 8.2 µM) | > 128 | 2 (≈ 4.1 µM) | 4 (≈ 8.2 µM) | 2 (≈ 4.1 µM) | 4 (≈ 8.2 µM) |  | 
COc1ccc2ncc(C#N)c(CCN3C4CCC3CC(NCc3ccc5c(c3)NC(=O)CS5)C4)c2c1 (stereo not drawn) [VT-03-00026] | 32 (≈ 62.3 µM) | 4 (≈ 7.79 µM) | 64 (≈ 125 µM) | 2 (≈ 3.89 µM) | 2 (≈ 3.89 µM) | 1 (≈ 1.95 µM) | 8 (≈ 15.6 µM) |  | 
COc1ccc2ncc(C#N)c(CCN3CCC(NCc4ccc([N+](=O)[O-])o4)CC3)c2c1 [VT-03-00051] | > 32 | 4 (≈ 9.19 µM) | > 16 | 2 (≈ 4.59 µM) | 2 (≈ 4.59 µM) | > 4 | 4 (≈ 9.19 µM) |  | 
COc1ccc2ncc(C#N)c(CCN3CCC(NC(=O)c4ccc([N+](=O)[O-])c(F)c4)CC3)c2c1 [VT-03-00055] | > 32 | 4 (≈ 8.38 µM) | > 32 | 1 (≈ 2.09 µM) | > 32 | 0.03 (≈ 0.0628 µM) | 0.25 (≈ 0.524 µM) | 52.7 | 71
COc1ccc2ncc(C#N)c(CCN3CCC(NCc4ccc([N+](=O)[O-])cc4)CC3)c2c1 [VT-03-00045] | 32 (≈ 71.8 µM) | 0.12 (≈ 0.269 µM) |  | 0.06 (≈ 0.135 µM) | 2 (≈ 4.49 µM) | 0.5 (≈ 1.12 µM) | 4 (≈ 8.98 µM) | 96.5 | 96.5
Cc1ccc(CNC2CCN(CCn3c(=O)ccc4ccc(C#N)cc43)CC2)cc1[N+](=O)[O-] [VT-03-00065] | > 32 | 1 (≈ 2.24 µM) | > 32 | 0.25 (≈ 0.561 µM) | > 32 | 4 (≈ 8.98 µM) | > 32 |  | 
COc1ccc2ncc(C#N)c(CCN3C4CCC3CC(NCc3ccc5c(c3)NC(=O)CO5)C4)c2c1 (stereo not drawn) [VT-03-00030] | 8 (≈ 16.1 µM) | 4 (≈ 8.04 µM) | > 32 | 2 (≈ 4.02 µM) | 1 (≈ 2.01 µM) | 4 (≈ 8.04 µM) | 4 (≈ 8.04 µM) |  | 
COc1ccc2ncc(C#N)c(CCN3C4CCC3CC(NCc3cc5c(cc3F)OCCO5)C4)c2c1 (stereo not drawn) [VT-03-00031] | 16 (≈ 31.8 µM) | 2 (≈ 3.98 µM) | > 32 | 1 (≈ 1.99 µM) | 4 (≈ 7.96 µM) | 1 (≈ 1.99 µM) | 2 (≈ 3.98 µM) |  | 
COc1ccc2ncc(=O)n(CCN3CCC(NCc4ccc([N+](=O)[O-])c(C)c4)CC3)c2c1 [VT-03-00067] | 16 (≈ 35.4 µM) | 0.5 (≈ 1.11 µM) | 32 (≈ 70.9 µM) | 0.12 (≈ 0.266 µM) | 2 (≈ 4.43 µM) | 0.25 (≈ 0.554 µM) |  |  | 
COc1ccc2ncc(C#N)c(CCN3CCC(NCc4ccc(N(C)C)c([N+](=O)[O-])c4)CC3)c2c1 [VT-03-00064] | 4 (≈ 8.19 µM) | 0.25 (≈ 0.512 µM) | > 32 | 0.12 (≈ 0.246 µM) | 0.25 (≈ 0.512 µM) | 0.12 (≈ 0.246 µM) | 2 (≈ 4.09 µM) | 89.3 | 98.1
COc1ccc2ncc(C#N)c(CCN3CCC(NCc4cc5c(c([N+](=O)[O-])c4)OCO5)CC3)c2c1 [VT-03-00077] | 2 (≈ 4.09 µM) | 0.12 (≈ 0.245 µM) | > 16 | 0.06 (≈ 0.123 µM) | 0.25 (≈ 0.511 µM) | 0.12 (≈ 0.245 µM) | 1 (≈ 2.04 µM) | 38.8 | 88.5
COc1ccc2ncc(C#N)c(CCN3C4CCC3CC(NS(=O)(=O)c3ccc5c(c3)OCCO5)C4)c2c1 (stereo not drawn) [VT-03-00021] | 16 (≈ 29.9 µM) | 0.12 (≈ 0.224 µM) | > 32 | 0.25 (≈ 0.468 µM) | 2 (≈ 3.74 µM) | 1 (≈ 1.87 µM) | 2 (≈ 3.74 µM) |  | 
COc1ccc2ncc(C#N)c(CCN3CCC(NCc4ccc(F)c([N+](=O)[O-])c4)CC3)c2c1 [VT-03-00048] | 8 (≈ 17.3 µM) | 0.5 (≈ 1.08 µM) | > 32 | 0.12 (≈ 0.259 µM) | 1 (≈ 2.16 µM) | 0.5 (≈ 1.08 µM) | 4 (≈ 8.63 µM) | 97.5 | 97.3
COc1ccc2ncc(=O)n(CCN3CCC(NCc4ccc(Br)c([N+](=O)[O-])c4)CC3)c2c1 [VT-03-00066] | 16 (≈ 31 µM) | 1 (≈ 1.94 µM) | > 32 | 0.5 (≈ 0.968 µM) | 4 (≈ 7.75 µM) | 1 (≈ 1.94 µM) | 4 (≈ 7.75 µM) | 55.9 | 89.9
